Patent US7572794B2, “Anthranilamide pyridinureas as vascular endothelial growth factor (VEGF) receptor kinase inhibitors” (Bayer Schering Pharma AG, priority 2004, dated 2009)

Columns and labels:
KDR-Kinase (VEGFR-2) = target: T1, KDR-Kinase (VEGFR-2) (Homo sapiens, UniProt P35968); assay: KDR Kinase Inhibition; type: biochemical; conditions: GST-kinase domain fusion construct of KDR; poly(Glu4Tyr) substrate, 32P-ATP, 10 min
T1 construct: GST-kinase domain fusion construct of the KDR kinase; GST
Description: Kinase activity was measured with a GST-kinase domain fusion construct of the KDR kinase according to the following protocol to obtain concentration response curves. Components were added into a microtiterplate in the following sequence: 10 μl of inhibitor in threefold final concentration [3% DMSO in buffer (40 mM TrisCl pH 7.5; 1 mM DTT, 1 mM MnCl2, 10 mM MgCl2, 2.5 Promille Polyethyleneglycol 20000)]and 10 μl of substrate mixture [24 μM ATP, 24 μg/ml poly(Glu4Tyr) in buffer, specific activity approx. 500 cpm/pmol ^32P-[…]ATP]. Reaction was started by adding 10 μl of enzyme preparation diluted appropriately in buffer that contains 10 μM vanadate. After incubation for exactly 10 min the reaction was stopped by adding of 10 μl stop solution (250 mM EDTA). 10 μl of the reaction mixture were transferred to phosphocellulose filters. The filters were washed in 0.1% phosphoric acid, dried before meltilex scintillator was applied (Waltac, Perkin-Elmer) and the radioactivity was counted.

[1] = target: T2, Cytochrome P450 isoenzyme 2C19 (Homo sapiens, UniProt P33261); assay: Cytochrome P450 Inhibition (2C19); type: in vitro ADME; conditions: baculovirus/insect cell-expressed human isoenzyme, method of Crespi et al.; read-out: IC50 CYP 2C19
T2 construct: host or cells: baculovirus/insect cells
Description: (§1) Cytochrome P450 Inhibition
(§2) The Cytochrome P450 isoenzyme inhibition was performed according to the publication of Crespi et al. (Anal. Biochem., 1997, 248, 188-190) with use of the baculovirus/insect cell-expressed, human Cytochrome P 450 isoenzymes (2C9 and 2C19).

[2] = target: T3, Cytochrome P450 isoenzyme 2C9 (Homo sapiens, UniProt P11712); assay: Cytochrome P450 Inhibition (2C9); type: in vitro ADME; conditions: baculovirus/insect cell-expressed human isoenzyme, method of Crespi et al.; read-out: IC50 CYP 2C9
T3 construct: host or cells: baculovirus/insect cells
Description: as §1, §2

T3 sequence (P11712 whole entry): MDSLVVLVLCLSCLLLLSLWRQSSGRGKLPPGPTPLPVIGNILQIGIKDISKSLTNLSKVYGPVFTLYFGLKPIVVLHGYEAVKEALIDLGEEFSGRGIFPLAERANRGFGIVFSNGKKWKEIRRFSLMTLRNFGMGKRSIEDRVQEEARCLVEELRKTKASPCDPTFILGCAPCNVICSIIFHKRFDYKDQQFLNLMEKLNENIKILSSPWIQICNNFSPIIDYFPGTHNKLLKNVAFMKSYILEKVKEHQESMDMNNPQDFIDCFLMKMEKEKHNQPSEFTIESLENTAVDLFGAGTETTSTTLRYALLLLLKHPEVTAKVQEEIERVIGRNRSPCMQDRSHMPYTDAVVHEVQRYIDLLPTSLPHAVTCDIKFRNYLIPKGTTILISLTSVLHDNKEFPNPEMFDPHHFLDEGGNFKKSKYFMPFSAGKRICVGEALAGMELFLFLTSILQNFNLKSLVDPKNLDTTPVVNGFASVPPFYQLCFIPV
T1 sequence (P35968 834-1162 limits assumed, species assumed): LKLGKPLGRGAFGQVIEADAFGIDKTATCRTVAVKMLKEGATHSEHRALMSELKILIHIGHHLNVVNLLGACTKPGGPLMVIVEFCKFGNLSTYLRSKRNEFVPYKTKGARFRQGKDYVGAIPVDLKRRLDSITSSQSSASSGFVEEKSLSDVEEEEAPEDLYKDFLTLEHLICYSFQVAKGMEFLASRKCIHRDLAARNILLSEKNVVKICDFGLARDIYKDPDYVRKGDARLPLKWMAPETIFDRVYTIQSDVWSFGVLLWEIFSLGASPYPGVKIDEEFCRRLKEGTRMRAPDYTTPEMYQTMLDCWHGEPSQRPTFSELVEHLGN
T2 sequence (P33261 whole entry): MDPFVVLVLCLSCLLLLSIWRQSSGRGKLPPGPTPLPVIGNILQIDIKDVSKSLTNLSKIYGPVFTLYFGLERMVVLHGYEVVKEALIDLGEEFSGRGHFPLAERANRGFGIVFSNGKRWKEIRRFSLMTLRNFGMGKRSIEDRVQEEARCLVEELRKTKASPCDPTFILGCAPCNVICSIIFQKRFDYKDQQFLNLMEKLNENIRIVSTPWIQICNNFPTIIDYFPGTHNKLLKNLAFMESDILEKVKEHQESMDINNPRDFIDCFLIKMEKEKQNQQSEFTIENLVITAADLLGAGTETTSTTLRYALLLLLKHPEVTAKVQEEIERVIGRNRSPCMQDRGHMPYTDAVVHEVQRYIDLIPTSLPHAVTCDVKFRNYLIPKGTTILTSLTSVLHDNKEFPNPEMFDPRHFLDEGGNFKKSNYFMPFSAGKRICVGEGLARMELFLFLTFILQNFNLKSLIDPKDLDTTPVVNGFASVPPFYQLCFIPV

IC50 (KDR-Kinase (VEGFR-2)) [µM]	IC50 [1] [µM]	IC50 [2] [µM]	SMILES
0.02	27	16	Cn1cc2ccc(NC(=O)c3ccccc3NCc3ccnc(NC(=O)N4CCC(O)CC4)c3)cc2n1 [Example 1.1, 4-hydroxy-piperidine-1-carboxylic acid (4-{[2-(2-methyl-2H-indazol-6-ylcarbamoyl)-phenylamino]-methyl}-pyridin-2-yl)-amide]
0.017	12	19	Cn1cc2ccc(NC(=O)c3ccccc3NCc3ccnc(NC(=O)N4CCC(O)(C(F)(F)F)CC4)c3)cc2n1 [Example 1.2, 4-hydroxy-4-trifluoromethyl-piperidine-1-carboxylic acid (4-{[2-(2-methyl-2H-indazol-6-ylcarbamoyl)-phenylamino]-methyl}-pyridin-2-yl)-amide]
0.029	8.9	4.4	CN1CCN(C(=O)Nc2cc(CNc3ccccc3C(=O)Nc3ccc4cn(C)nc4c3)ccn2)CC1 [Example 3.0, 4-methyl-piperazine-1-carboxylic acid (4-{[2-(2-methyl-2H-indazol-6-ylcarbamoyl)-phenylamino]-methyl}-pyridin-2-yl)-amide]
0.029	9	13	Cn1cc2ccc(NC(=O)c3ccccc3NCc3ccnc(NC(=O)N4CCOCC4)c3)cc2n1 [Example 3.6, morpholine-4-carboxylic acid (4-{[2-(2-methyl-2H-indazol-6-ylcarbamoyl)-phenylamino]-methyl}-pyridin-2-yl)-amide]
